Results published in article PMC12678337, “EAR-20 peptide, a novel NMDA receptor positive allosteric modulator” (Frontiers in Pharmacology, 2025).
Where “and” joins values, the source holds several entries; their conditions need not be identical. Identical values can stand only once. No end group written: not given here.

Legend:
GluN1-GluN2B [1] = target: T1, GluN1-GluN2B (Rattus norvegicus, UniProt P35439+Q00960); format: cell-based
T1 construct: GFP (N); expressed in transfected cells; host or cells: HEK-293T

GluN1-GluN2A [2] = target: T2, GluN1-GluN2A (Rattus norvegicus, UniProt P35439+Q00959); format: cell-based
T2 construct: GFP (N); expressed in transfected cells; host or cells: HEK-293T (single-channel: HEK293)

GluN1-GluN2A [3] = target: T2, GluN1-GluN2A; format: cell-based; remark: listed apart in the source
GluN1-GluN2B [4] = target: T1, GluN1-GluN2B; format: cell-based; remark: listed apart in the source
GluN1-GluN2C = target: T3, GluN1-GluN2C (Rattus norvegicus, UniProt P35439+Q00961); format: cell-based
T3 construct: HA (N); expressed in transfected cells; host or cells: HEK-293T

GluN1-GluN2D = target: T4, GluN1-GluN2D (Rattus norvegicus, UniProt P35439+Q62645); format: cell-based
T4 construct: HA (N); expressed in transfected cells; host or cells: HEK-293T

GluN1-GluN2A [5] = target: T2, GluN1-GluN2A; assay: cell-based
GluN1-GluN2B [6] = target: T1, GluN1-GluN2B; assay: cell-based
GluN1/GluN2A-V820I = target: T5, GluN1/GluN2A-V820I (Rattus norvegicus, UniProt P35439+Q00959, V820I); format: cell-based
T5 construct: GFP (N); expressed in transfected cells; host or cells: HEK-293T

T1 sequence (Q00960 27-1482, other chains not shown): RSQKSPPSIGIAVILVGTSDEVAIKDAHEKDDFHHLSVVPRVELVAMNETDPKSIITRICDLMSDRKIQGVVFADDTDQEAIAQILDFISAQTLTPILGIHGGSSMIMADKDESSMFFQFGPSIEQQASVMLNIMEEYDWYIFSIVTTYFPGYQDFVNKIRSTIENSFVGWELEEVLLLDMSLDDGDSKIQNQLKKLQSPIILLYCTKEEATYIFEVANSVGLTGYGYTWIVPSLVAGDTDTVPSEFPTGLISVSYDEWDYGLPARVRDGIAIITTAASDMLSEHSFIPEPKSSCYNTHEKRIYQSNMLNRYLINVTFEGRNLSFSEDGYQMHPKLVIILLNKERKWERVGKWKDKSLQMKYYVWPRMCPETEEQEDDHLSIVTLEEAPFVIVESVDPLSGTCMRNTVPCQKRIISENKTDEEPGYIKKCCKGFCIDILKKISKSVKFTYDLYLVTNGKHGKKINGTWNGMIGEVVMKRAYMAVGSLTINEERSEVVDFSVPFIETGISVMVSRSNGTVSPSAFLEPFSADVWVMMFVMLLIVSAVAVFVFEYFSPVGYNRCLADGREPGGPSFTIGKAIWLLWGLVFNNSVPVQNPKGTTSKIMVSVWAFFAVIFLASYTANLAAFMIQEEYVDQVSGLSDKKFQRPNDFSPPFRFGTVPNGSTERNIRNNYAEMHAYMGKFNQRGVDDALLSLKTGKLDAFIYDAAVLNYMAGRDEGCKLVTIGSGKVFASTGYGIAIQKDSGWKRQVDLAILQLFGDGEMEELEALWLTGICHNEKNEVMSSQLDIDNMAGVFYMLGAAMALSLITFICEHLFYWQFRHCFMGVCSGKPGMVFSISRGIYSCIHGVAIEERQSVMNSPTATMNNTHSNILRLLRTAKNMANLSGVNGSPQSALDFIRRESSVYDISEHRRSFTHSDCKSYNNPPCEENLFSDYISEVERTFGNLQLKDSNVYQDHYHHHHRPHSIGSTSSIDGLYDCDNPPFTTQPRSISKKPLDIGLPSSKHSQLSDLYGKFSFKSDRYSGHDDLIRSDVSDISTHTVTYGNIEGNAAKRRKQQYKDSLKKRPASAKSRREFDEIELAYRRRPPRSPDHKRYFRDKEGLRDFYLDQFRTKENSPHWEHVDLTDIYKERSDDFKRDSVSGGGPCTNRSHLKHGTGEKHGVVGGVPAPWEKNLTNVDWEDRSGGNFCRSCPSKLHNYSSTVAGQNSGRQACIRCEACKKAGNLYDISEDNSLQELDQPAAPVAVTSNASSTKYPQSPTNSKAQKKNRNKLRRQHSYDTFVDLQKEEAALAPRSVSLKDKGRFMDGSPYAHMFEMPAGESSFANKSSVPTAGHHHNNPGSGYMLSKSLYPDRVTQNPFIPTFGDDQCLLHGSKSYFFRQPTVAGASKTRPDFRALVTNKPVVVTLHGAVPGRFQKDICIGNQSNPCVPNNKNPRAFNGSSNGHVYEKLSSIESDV
T2 sequence (Q00959 23-1464, other chains not shown): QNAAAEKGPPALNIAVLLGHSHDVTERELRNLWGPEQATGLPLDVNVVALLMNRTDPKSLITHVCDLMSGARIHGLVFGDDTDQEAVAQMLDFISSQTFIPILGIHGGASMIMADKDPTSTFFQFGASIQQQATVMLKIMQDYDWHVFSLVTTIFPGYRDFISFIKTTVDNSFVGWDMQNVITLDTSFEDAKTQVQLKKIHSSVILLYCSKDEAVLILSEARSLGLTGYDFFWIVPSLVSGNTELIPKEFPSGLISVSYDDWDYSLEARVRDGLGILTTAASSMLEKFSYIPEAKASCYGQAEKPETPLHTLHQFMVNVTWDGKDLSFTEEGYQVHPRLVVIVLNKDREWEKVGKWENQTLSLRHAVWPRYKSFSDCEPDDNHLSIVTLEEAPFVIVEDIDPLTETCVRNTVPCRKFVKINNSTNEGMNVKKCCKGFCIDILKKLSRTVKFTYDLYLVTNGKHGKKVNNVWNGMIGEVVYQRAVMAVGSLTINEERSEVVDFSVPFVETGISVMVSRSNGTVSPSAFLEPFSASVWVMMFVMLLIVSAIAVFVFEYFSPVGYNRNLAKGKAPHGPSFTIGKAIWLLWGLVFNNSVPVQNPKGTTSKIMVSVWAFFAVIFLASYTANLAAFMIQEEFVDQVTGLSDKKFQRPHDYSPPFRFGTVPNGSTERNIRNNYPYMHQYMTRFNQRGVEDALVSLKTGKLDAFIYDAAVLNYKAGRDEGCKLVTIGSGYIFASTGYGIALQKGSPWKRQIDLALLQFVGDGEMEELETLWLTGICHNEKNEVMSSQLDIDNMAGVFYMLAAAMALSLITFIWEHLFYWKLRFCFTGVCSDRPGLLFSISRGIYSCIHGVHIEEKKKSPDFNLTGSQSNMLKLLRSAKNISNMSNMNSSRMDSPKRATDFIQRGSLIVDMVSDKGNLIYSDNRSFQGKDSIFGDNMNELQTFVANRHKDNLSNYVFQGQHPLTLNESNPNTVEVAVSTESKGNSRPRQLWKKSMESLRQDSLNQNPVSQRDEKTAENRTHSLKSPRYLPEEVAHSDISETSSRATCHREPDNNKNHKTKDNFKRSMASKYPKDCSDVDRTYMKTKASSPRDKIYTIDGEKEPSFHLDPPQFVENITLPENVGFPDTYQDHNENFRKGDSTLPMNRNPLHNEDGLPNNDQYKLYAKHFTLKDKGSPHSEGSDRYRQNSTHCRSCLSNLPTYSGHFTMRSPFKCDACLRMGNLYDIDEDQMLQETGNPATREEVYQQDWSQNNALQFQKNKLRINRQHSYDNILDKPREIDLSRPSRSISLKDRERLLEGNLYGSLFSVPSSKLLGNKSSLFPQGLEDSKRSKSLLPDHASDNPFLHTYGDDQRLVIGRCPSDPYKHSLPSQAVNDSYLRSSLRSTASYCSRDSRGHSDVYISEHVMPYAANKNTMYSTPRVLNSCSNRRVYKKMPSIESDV
T3 sequence (Q00961 20-1237, other chains not shown): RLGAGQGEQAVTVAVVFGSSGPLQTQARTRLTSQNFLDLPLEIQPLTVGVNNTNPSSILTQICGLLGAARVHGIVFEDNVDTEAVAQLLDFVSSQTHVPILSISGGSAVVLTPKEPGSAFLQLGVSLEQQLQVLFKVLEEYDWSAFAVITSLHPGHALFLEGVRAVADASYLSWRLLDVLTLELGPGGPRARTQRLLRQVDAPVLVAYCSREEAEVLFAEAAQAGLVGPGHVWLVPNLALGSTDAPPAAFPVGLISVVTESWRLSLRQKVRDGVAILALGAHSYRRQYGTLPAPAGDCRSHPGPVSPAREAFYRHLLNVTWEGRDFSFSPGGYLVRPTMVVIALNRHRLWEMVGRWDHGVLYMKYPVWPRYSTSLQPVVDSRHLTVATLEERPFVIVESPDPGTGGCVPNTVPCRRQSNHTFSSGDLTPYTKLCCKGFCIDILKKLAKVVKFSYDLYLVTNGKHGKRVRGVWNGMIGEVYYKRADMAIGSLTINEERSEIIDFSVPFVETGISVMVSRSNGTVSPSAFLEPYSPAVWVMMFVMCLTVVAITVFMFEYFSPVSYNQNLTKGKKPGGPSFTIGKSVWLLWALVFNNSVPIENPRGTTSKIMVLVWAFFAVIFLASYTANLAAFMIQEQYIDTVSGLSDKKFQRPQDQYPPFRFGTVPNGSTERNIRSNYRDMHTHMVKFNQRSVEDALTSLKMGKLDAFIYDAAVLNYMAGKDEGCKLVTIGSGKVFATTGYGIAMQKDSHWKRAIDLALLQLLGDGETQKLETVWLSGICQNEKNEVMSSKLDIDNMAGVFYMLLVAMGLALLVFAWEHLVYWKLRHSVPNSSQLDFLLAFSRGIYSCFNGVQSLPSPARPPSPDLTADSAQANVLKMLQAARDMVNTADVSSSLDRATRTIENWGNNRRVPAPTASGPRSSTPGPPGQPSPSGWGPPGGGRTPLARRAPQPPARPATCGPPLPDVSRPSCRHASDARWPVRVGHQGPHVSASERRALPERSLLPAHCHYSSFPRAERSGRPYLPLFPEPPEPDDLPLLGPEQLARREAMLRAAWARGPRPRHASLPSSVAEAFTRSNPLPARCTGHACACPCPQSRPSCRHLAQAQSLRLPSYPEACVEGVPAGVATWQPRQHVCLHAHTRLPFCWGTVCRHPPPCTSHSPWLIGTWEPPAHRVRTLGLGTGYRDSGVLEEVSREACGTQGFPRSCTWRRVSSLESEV

With KLGMRSELQIDNDQDAD [EAR-20] the “maximal agonist activity relative to glutamate plus glycine” value (GluN1-GluN2B [1]) was 12.18% ± 6.9%, the “response in the presence of glutamate, % of glutamate plus glycine response” value (GluN1-GluN2B [1]) was 38.33% ± 17.1% and the “response in the presence of glycine, % of glutamate plus glycine response” value (GluN1-GluN2B [1]) was 43.22% ± 18.1%. The “agonistic activity relative to glutamate plus glycine” value (GluN1-GluN2A [2]) was 13.31% ± 6.5%, the peak current potentiation (GluN1-GluN2A [3]) was 15.68% ± 6.19% and 15.68% ± 6.16% and the steady-state current potentiation (GluN1-GluN2A [3]) was 154.3% ± 19.0% and 154.3% and 153.3% ± 19.9%. The peak current potentiation (GluN1-GluN2B [4]) was 102.6% ± 24.02%, the “potentiation by EAR-20” value (GluN1-GluN2B [4]) was 136.8% ± 19.6% and the steady-state current potentiation (GluN1-GluN2B [4]) was 137.9% ± 21.0% and 137.9% and 143.7% ± 26.8%. The peak current potentiation (GluN1-GluN2C) was −8.04% ± 7.48%, the steady-state current potentiation (GluN1-GluN2C) was 23.31% ± 7.6% and ~25% and the peak current potentiation (GluN1-GluN2D) was 4.97% ± 2.63%. For the same sequence, the steady-state current potentiation (GluN1-GluN2D) was 102.45% ± 11.1%, the EC50 (GluN1-GluN2A [5]) was 88.7 µM and the EC50 (GluN1-GluN2B [6]) was 42.2 µM. For the same sequence, the steady-state potentiation (GluN1/GluN2A-V820I) was 146.6% ± 37.8%.
